EC50, IC50 and AC50 data for 9 molecules are collected here from ChEMBL document CHEMBL1201862, “PubChem BioAssay data set” (2004).

The target of assay [1] is T1, Short transient receptor potential channel 4 (Mus musculus, UniProt Q9QUQ5).
T1 sequence (Q9QUQ5 whole entry): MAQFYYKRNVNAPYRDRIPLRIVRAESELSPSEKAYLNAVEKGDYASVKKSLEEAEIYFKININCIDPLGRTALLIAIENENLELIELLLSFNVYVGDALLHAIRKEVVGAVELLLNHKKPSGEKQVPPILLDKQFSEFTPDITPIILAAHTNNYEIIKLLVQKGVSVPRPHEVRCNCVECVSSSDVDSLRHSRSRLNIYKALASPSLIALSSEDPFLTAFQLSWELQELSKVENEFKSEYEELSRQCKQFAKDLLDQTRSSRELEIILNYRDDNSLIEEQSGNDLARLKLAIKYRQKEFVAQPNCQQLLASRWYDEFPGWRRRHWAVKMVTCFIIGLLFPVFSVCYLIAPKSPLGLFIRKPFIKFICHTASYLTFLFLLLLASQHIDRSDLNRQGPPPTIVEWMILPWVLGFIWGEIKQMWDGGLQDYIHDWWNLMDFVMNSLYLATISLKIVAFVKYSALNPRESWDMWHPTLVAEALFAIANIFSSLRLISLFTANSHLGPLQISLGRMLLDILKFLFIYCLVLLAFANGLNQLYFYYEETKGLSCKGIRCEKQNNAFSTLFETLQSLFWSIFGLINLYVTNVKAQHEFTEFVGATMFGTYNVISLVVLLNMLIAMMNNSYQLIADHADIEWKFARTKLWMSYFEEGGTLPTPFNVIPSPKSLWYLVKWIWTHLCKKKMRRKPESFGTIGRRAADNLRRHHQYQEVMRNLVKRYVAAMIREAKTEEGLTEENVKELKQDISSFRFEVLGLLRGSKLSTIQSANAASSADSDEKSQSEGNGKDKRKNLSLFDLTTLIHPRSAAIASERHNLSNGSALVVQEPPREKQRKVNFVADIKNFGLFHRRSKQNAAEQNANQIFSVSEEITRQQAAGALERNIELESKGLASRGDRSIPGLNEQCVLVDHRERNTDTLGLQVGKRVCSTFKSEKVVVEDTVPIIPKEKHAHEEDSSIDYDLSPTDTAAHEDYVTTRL
The assay is described as follows: block of DAMGO-driven TRPC4 calcium entry – cell-based, HEK293 TRPC4/mu-opioid, Fluo-4 calcium, dose response (AID 434942).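 Note: potency of inhibitors blocking the TRPC4 calcium response.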 In kind it is functional.

Assay [2] deals with T1, Short transient receptor potential channel 4. The assay is described as follows: calcium entry via TRPC4 opening agents – cell-based, HEK293 TRPC4/mu-opioid, Fluo-4 calcium, dose response (AID 434937). In kind it is functional.
The target in assay [3] is Voltage-dependent T-type calcium channel subunit alpha-1H (Homo sapiens, UniProt O95180). In kind it is functional.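 Note: channel activity triggered by adding a high calcium stimulation buffer.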
In assay [4] the target is T2, Endoribonuclease toxin MazF (Escherichia coli K-12, UniProt P0AE70).
T2 sequence (P0AE70 whole entry): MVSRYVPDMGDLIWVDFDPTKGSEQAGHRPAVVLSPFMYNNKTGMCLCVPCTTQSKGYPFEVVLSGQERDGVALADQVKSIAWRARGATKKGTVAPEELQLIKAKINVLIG
The assay is described as follows: activation of MazEF endoribonuclease cleavage – biochemical, fluorescence, single-stranded RNA substrate, uHTS hits, dose response (AID 588481). In kind it is functional.

Assay [5] concerns the target T2, Endoribonuclease toxin MazF. The assay is described as follows: substrate-only fluorescence increase artefacts – biochemical, single-stranded RNase substrate, counter-screen for MazEF activator project, dose response (AID 588502). In kind it is functional. (In general: Counterscreens check selectivity or assay interference.)
In assay [6] the target is G-protein coupled receptor 35 (Homo sapiens, UniProt Q9HC97). The assay is described as follows: inhibition of zaprinast-stimulated GPR35 beta-arrestin translocation – imaging, U2OS, beta-arrestin-GFP, zaprinast agonist, primary screen (AID 2058).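 Note: antagonist potency meaning inhibition of agonist-induced arrestin redistribution.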 In kind it is functional.
Assay [7] addresses T3, Corticotropin-releasing factor receptor 2/Corticotropin-releasing factor-binding protein (Homo sapiens, UniProt P24387+Q13324).
T3 sequence (Q13324 whole entry): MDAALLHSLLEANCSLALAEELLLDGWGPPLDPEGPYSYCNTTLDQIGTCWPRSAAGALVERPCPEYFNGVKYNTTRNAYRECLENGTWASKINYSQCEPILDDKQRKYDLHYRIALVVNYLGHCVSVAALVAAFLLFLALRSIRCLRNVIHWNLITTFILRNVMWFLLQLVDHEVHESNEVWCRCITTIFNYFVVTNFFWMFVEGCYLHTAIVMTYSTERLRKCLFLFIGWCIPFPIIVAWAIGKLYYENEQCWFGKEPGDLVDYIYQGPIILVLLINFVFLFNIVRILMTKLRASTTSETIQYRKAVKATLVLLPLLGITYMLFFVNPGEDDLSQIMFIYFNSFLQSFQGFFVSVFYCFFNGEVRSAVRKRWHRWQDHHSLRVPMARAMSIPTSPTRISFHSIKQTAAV
T3 sequence (P24387 whole entry): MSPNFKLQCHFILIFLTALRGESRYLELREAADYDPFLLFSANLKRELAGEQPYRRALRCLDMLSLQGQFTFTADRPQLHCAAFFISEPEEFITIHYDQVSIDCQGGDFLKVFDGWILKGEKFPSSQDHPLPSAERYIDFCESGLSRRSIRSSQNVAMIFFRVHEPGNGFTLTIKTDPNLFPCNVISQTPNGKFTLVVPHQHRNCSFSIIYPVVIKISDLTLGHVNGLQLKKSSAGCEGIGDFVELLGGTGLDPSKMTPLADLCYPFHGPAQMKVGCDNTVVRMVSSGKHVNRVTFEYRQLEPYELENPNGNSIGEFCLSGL
The assay is described as follows: activators of CRF receptor 2 with binding protein – uHTS hits, confirmation (AID 602473). In kind it is functional. The following applies: read-out: EC50_Mean.

The target in assay [8] is T4, Protein RecA (Mycobacterium tuberculosis, UniProt P9WHJ3).
T4 sequence (P9WHJ3 whole entry): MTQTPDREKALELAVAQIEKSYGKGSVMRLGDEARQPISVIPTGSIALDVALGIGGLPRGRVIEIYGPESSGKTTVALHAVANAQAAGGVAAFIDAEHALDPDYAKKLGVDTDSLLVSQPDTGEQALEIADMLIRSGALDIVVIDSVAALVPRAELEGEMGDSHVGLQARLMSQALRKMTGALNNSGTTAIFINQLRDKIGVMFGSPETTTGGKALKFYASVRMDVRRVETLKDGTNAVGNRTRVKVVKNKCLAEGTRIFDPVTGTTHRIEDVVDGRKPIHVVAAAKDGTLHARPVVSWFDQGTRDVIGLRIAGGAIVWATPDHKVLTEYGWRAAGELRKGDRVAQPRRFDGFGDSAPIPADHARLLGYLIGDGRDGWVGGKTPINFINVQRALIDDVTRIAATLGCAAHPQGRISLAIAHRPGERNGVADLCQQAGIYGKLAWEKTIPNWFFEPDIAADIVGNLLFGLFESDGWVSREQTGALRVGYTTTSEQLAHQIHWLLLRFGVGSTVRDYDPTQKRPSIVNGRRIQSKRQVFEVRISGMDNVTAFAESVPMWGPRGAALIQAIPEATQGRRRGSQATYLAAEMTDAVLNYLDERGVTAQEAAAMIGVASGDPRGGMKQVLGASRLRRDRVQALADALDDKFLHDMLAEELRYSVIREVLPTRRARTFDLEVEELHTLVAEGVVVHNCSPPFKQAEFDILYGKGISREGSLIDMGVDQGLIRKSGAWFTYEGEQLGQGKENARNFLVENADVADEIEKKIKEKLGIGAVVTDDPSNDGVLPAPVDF
The experiment in a line: Fluorescence Cell-Free Homogeneous Dose Retest to Identify Inhibitors of RecA-Intein Splicing Activity. [Related pubchem assays (depositor defined):AID2097, AID2223, AID489010, AID492950]. In kind it is functional.

Assay [9] deals with T5, Replicative DNA helicase DnaB (Mycobacterium tuberculosis, UniProt P9WMR3).
T5 sequence (P9WMR3 whole entry): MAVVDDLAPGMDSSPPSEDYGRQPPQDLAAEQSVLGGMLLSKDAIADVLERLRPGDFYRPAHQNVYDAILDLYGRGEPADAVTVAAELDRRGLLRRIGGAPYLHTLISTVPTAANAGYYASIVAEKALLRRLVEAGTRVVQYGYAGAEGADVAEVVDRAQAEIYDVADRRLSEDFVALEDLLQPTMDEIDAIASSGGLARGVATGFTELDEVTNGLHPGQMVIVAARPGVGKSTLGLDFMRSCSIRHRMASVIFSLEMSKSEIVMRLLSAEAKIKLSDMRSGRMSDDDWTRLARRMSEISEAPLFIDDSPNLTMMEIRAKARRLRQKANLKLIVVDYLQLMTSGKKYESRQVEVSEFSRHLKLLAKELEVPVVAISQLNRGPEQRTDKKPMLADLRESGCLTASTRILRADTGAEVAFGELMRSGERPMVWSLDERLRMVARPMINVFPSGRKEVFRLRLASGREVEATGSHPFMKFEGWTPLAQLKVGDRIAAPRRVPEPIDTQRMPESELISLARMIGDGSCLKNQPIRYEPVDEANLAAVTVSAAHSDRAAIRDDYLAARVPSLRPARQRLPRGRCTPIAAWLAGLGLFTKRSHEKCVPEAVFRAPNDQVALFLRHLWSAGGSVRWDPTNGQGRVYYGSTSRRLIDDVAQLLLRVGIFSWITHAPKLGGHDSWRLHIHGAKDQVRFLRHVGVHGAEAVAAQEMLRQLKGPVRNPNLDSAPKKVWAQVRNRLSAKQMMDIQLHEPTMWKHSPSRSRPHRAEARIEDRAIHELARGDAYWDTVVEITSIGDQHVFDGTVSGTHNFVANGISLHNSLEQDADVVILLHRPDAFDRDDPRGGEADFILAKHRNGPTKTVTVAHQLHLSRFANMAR
The assay is described as follows: DnaB intein splicing inhibitors, dose response, biochemical, cell-free fluorescence (AID 449749). In kind it is functional.

Assay [10] in a line: viability of PTEN-deleted HCT116 cells – cell-based, HCT116 PTEN knockout, dose response (AID 1047).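 Note: HCT116 colon tumor cells with PTEN knocked out; cells exposed to compound for 60 hours before readout; potency for loss of cell viability measured by luminescence.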 In kind it is functional.
In assay [11] the target is T6, RNA-binding protein pos-1 (Caenorhabditis elegans, UniProt G5EF15).
T6 sequence (G5EF15 whole entry): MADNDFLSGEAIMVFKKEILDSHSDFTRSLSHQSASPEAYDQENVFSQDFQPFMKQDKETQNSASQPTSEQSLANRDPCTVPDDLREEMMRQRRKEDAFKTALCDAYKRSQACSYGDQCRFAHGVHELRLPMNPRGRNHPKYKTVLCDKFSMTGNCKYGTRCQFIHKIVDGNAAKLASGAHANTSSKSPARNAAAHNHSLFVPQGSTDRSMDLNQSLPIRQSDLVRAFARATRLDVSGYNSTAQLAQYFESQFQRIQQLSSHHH
The assay is described as follows: disruptors of C. elegans POS-1 RNA interaction – biochemical, fluorescence polarization, dose response (AID 1964).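 Note: purified POS-1 fused to maltose binding protein made in E. coli; potency of compounds blocking POS-1 binding to fluorescent RNA.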 Background: In fluorescence polarisation assays a small probe gives low polarisation when free and higher when bound to something large.

In assay [12] the target is T7, Zinc finger protein mex-5 (Caenorhabditis elegans, UniProt Q9XUB2).
T7 sequence (Q9XUB2 whole entry): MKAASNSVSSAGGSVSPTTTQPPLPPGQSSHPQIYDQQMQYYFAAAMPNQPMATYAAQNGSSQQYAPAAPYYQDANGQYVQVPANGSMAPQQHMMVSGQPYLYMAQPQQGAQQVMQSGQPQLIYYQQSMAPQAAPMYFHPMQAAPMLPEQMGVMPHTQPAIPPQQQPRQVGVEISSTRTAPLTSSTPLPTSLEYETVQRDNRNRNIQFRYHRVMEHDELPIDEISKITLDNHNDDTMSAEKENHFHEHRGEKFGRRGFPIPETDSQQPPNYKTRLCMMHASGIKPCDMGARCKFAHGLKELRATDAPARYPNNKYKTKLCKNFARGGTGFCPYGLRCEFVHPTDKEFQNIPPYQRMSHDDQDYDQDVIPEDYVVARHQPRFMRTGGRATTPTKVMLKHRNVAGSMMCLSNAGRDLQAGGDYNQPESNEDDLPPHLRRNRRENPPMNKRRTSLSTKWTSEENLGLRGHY
The assay is described as follows: potency of MEX-5 RNA-binding blockers – biochemical, C. elegans, fluorescence polarization, dose response (AID 1960).

Assay [13] is described as follows: viability of HCT116 lacking mutant beta-catenin – cell-based, human colon tumor, dose response (AID 1045).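 Note: HCT116 colon tumor cells with beta catenin knocked out; cells exposed to compound for 60 hours.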 In kind it is functional.

Activity calls are given as the source filed them. Where only a bound is given, the exact number is not on record here.

Chain of Voltage-dependent T-type calcium channel subunit alpha-1H (O95180 whole entry): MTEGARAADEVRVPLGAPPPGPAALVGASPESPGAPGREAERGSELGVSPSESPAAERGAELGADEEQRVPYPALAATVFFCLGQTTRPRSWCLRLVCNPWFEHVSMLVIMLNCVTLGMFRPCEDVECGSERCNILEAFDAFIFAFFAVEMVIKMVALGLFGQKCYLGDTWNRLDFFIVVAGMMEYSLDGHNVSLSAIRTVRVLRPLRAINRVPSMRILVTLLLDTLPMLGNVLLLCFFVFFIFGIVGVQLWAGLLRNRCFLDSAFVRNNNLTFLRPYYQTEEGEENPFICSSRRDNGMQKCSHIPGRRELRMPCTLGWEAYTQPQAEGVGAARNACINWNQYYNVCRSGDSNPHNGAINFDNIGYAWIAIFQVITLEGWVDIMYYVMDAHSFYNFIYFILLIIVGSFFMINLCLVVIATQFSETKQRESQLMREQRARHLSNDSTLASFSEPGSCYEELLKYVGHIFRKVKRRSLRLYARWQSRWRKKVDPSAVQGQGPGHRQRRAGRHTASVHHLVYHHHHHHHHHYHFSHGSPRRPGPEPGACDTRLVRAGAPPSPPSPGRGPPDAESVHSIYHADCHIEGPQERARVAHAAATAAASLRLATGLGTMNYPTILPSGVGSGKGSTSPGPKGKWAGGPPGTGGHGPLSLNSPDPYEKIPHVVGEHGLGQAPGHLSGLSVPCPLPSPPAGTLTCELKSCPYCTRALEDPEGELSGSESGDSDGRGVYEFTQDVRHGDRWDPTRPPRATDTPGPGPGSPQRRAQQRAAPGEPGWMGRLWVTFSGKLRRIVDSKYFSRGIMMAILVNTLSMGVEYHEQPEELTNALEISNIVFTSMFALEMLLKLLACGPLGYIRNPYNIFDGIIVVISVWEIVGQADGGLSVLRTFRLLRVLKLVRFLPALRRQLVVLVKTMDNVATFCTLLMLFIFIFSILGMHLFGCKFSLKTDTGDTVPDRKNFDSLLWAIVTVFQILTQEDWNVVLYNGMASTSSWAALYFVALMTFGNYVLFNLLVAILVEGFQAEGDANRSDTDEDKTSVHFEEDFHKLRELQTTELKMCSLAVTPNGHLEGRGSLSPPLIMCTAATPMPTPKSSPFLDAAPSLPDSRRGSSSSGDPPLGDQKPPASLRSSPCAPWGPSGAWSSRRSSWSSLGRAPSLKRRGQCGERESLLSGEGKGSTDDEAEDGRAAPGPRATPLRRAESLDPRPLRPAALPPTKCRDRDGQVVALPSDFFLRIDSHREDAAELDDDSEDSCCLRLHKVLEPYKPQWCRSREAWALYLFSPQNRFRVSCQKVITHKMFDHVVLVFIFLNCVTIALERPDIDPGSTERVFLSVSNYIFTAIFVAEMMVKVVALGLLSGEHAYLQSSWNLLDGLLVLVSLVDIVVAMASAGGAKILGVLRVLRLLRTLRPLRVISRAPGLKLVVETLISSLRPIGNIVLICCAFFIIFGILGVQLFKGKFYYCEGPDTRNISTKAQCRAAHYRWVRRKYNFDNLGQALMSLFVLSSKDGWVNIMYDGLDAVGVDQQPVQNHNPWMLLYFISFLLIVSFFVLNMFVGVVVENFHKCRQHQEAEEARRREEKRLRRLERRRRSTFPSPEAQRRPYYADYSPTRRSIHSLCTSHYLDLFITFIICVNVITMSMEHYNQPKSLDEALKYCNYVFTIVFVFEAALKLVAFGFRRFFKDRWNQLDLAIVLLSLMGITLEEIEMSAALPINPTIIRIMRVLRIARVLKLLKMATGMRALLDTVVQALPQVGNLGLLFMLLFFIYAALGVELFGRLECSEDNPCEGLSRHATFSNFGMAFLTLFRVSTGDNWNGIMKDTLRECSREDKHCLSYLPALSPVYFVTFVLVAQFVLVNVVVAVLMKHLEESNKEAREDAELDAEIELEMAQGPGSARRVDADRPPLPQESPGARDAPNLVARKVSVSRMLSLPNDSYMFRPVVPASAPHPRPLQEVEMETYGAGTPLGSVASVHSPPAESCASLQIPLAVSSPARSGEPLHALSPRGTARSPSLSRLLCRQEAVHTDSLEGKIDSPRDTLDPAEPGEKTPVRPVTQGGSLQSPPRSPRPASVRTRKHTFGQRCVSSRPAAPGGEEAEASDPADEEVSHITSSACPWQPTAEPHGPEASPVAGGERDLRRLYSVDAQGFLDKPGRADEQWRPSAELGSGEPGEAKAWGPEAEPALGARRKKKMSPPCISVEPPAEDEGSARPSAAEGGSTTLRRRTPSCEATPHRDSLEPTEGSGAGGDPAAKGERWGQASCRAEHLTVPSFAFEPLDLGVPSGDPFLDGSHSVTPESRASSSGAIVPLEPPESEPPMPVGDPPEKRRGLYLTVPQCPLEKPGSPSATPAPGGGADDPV
Chain of G-protein coupled receptor 35 (Q9HC97 whole entry): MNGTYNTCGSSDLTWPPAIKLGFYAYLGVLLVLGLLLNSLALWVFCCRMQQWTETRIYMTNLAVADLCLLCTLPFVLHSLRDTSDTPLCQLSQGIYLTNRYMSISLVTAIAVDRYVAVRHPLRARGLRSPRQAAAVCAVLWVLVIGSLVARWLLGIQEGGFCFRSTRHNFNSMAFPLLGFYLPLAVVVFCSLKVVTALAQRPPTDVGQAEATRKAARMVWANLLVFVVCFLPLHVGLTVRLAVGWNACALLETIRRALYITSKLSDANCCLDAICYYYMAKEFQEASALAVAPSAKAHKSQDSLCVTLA

As for `O=C(c1cccc(C(=O)N2CCN(c3ccccc3)CC2)c1)N1CCN(c2ccccc2)CC1`, the EC50 in [1] is 1.06 µM (active).

With `CN(C)CCN(C(=O)C1CCCCC1)c1nc2cc3c(cc2s1)OCO3`, the EC50 in [1] is 2.66 µM (active); in assay [2], 6.68 µM (active).

`CCOC(=O)C1CCCN(S(=O)(=O)c2ccc(OC)c3ccccc23)C1` (stereo unspecified): the EC50 in assay [3] was 0.647 µM (active).

In the case of `COc1ccc(/C=c2\s/c(=C/C(=O)c3ccc(C)cc3)[nH]c2=O)c(OC)c1`, the EC50 in [4] was > 99 µM (inactive); in [5] it was > 99 µM (inactive); in assay [7] it was 10.7 µM (active). In assay [6], the IC50 was 1.76 µM (active).

Consider `Cc1ccccc1NC(=O)c1sc2nc3c(c(-c4ccco4)c2c1N)CCCC3`, for which, in assay [3], the EC50 is 10.1 µM (active).

For `O=c1c(Cl)c(Cl)cnn1Cc1ccccc1Cl`, the IC50 in [6] was 2.16 µM (active). The EC50 in [8] was 7.78 µM (active). In addition, the AC50 in assay [9] was 15.5 µM (active).

`CCN(CC)c1ccc(/C=C(/C#N)c2nc3ccccc3[nH]2)c(OC(C)C)c1`: the EC50 in [3] is 3.84 µM (active); in assay [10] it was 11.2 µM (active); in [11], 3.96 µM (active); in assay [12] it was 8.13 µM (active); in assay [13], 11.1 µM (active). In assay [6], the IC50 was 1.19 µM (active).

For `Cc1ccc(S(=O)(=O)Nc2cccc(C(=O)NCC(c3ccco3)N3CCCC3)c2)cc1F` (stereo unspecified), the EC50 in [1] was 0.149 µM (active); in [2] it was 1.5 µM (active).

On to `CCCCc1nc(CN2CCCC(C(=O)c3ccc(SC)cc3)C2)c[nH]1` (stereo unspecified), for which the EC50 in assay [1] was 1.88 µM (active).

Usually IC50 stands for the concentration that gives 50% inhibition. What is called AC50 is the concentration at which the activity in the assay is half-maximal.
